# Paper PMC11056381, “Characterization and evaluation of cytotoxic and antimicrobial activities of cyclotides from Viola japonica” (Scientific Reports, 2024)
# Residues, ends and D or L forms follow the SMILES beside them.
# Columns and labels:
# [1] = system: A549 (human non-small cell lung cancer cells); assay: MTT cytotoxicity assay; type: cell-based; conditions: 48 h incubation, mean ± SD of at least three repeats
# Protocol: (§1) Five types of cells, namely A549 (human non-small cell lung cancer cells), T24 (human bladder cancer cells), 4T1 (mouse breast cancer cells), 7402 (human hepatocellular carcinoma cells), and THLE-3 (human hepatocytes cells), are selected for evaluating the cytotoxicity of viba 11, cycloviolacin O2, and vija 10 using the MTT (3-(4,5-dimethylthiazol-2-yl)-2,5-diphenyltetrazolium bromide) reagent.
# (§2) To determine cell toxicity using MTT assay, cells are seeded in a 96-well plate and cultured for 24 h. After that, different concentrations of cyclotides are added to the cells and incubated for 48 h. MTT is then added to react with the cells, and after 4 h, the reaction is terminated by discarding the supernatant and adding dimethyl sulfoxide for resuspension. The absorbance at 570 nm is measured after 10 min of shaking at room temperature. Each test was performed three times at least. The data were analyzed using GraphPad Prism 8. During this process, the drug concentrations were transformed into logarithmic form with a base of 10 and plotted on the x-axis. Cell viability (%) = [A (cyclotides) − A (blank)]/[A (control) − A (blank)] × 100, which was represented on the y-axis. Using this method, we determined the IC50 value for each experiment, with each experiment repeated at least three times and the mean value calculated. The error was represented by the standard deviation of the IC50 obtained from three repetitions.
# [2] = system: THLE-3 (human hepatocytes cells); assay: MTT cytotoxicity assay; type: cell-based; conditions: THLE-3 cells, 48 h incubation, mean ± SD of at least three repeats
# Protocol: as §1, §2
# [3] = system: 7402 (human hepatocellular carcinoma cells); assay: MTT cytotoxicity assay; type: cell-based; conditions: 7402 cells, 48 h incubation, mean ± SD of at least three repeats
# Protocol: as §1, §2
# [4] = system: 4T1 (mouse breast cancer cells); assay: MTT cytotoxicity assay; type: cell-based; conditions: 4T1 cells, 48 h incubation, mean ± SD of at least three repeats
# Protocol: as §1, §2
# [5] = system: T24 (human bladder cancer cells); assay: MTT cytotoxicity assay; type: cell-based; conditions: 48 h incubation, mean ± SD of at least three repeats
# Protocol: as §1, §2
# Bacillus subtilis = assay: Time killing kinetics; type: cell-based; conditions: about 10^6 CFU/mL, LB, 37 °C, colony count
# Protocol: In this study, we investigated the time-kill kinetics characteristics of plant cyclotides against bacteria. […] It is worth noting that due to experimental constraints, there was a slight discrepancy of a few minutes between theoretical 0 h and actual 0 h. […] Furthermore, we also conducted time-kill kinetics studies using vija 10 against B. subtilis.
# Figure 4 (A) The Acinetobacter baumannii time killing kinetics of cycloviolacin O2 at concentration of 1 MIC, 2 MIC, 4 MIC and 8 MIC at 37 °C. (B) The Bacillus subtilis time killing kinetics of vija 10 at concentration of 1 MIC, 2 MIC, 4 MIC at 37 °C. Each test was performed three times at least.
# Incubate A. baumannii and B. subtilis in fresh nutrient LB broth at 37 °C until logarithmic growth stage, then dilute to approximately 10^6 CFU/mL, and incubate with cycloviolacin O2 at concentrations of 1 MIC, 2 MIC, 4 MIC, 8 MIC with A. baumannii and vija 10 at concentrations of 1 MIC, 2 MIC, 4 MIC with B. subtilis respectively. Taking the mixture at time points of 0 h, 0.5 h, 1 h, 1.5 h and 2 h, dilute and coat it to solid medium for 24 h. Count the number of colonies on solid culture medium. Each test was performed three times at least. Plotting a line graph with time on the x-axis and bacterial survival on the y-axis using GraphPad Prism 8. Statistical analysis of bacterial viability at different time points to determine the bactericidal and bacteriostatic effects of cyclotides.
# [6] = system: Escherichia coli (CMCC(B)44102-2-6); assay: microbe, parasite or virus in culture; conditions: 10^6 CFU/ml, 96-well plate, overnight 37 °C, visual clarity, performed at least three times
# Text: (§3) Viba 11, originally discovered in Viola baoshanensis[39] and found in other plants such as Viola tricolor[40], Viola betonicifolia, and Viola philippica, lacks biological activity studies. […] All purified cyclotides underwent antibacterial testing against Gram-positive bacterium Staphylococcus aureus (CMCC(B)26003-2-10) and Bacillus subtilis (CMCC(B)63501), Gram-negative bacteria, including Acinetobacter baumannii (ATCC19606), Escherichia coli (CMCC(B)44102-2-6), and Salmonella paratyphi (CMCC(B)50094-2-9).
# (§4) Bacterial fluids are cultured overnight at 37 °C. The next day, the bacterial liquids are diluted to a concentration of 10^6 CFU/ml. Prepare different concentrations of cyclotide drugs and kanamycin sulfate in advance, and sequentially add the drugs and bacterial liquid to the 96-well plate. Negative controls consisted of sterile water and bacterial liquid. The plate is cultured overnight at 37 °C and observe whether the solution remains clear to see the growth of the bacterial suspension. Each test was performed three times at least.
# [7] = system: Bacillus subtilis (CMCC(B)63501); assay: microbe, parasite or virus in culture; conditions: 10^6 CFU/ml, 96-well plate, overnight 37 °C, visual clarity, performed at least three times
# Text: as §3, §4
# [8] = system: Acinetobacter baumannii (ATCC19606); assay: microbe, parasite or virus in culture; conditions: Acinetobacter baumannii ATCC19606; 10^6 CFU/ml, 96-well plate, overnight 37 °C, visual clarity; performed at least three times
# Text: as §3, §4
# [9] = system: Salmonella paratyphi (CMCC(B)50094-2-9); assay: MIC, broth dilution in 96-well plate; type: cell-based; conditions: 10^6 CFU/ml, overnight 37 °C, visual clarity, performed at least three times
# Text: (§5) Cycloviolacin O2, known for its antimicrobial, hemolytic, and insecticidal activities, has been more extensively investigated[4],[20],[36]–[38]. Viba 11, originally discovered in Viola baoshanensis[39] and found in other plants such as Viola tricolor[40], Viola betonicifolia, and Viola philippica, lacks biological activity studies. These two cyclotides and vija 10 are high in content and easy to purify, and cycloviolacin O2 can also be used as a positive control to conduct activity study. In addition, few vija12 and 31 were extracted for antibacterial experiments. All purified cyclotides underwent antibacterial testing against Gram-positive bacterium Staphylococcus aureus (CMCC(B)26003-2-10) and Bacillus subtilis (CMCC(B)63501), Gram-negative bacteria, including Acinetobacter baumannii (ATCC19606), Escherichia coli (CMCC(B)44102-2-6), and Salmonella paratyphi (CMCC(B)50094-2-9). […] In addition, the MICs of viba 11, cycloviolacin O2 and vija 10 against B. subtilis were respectively 5.4 μM, 2.1 μM and 14.3 μM (Table 1). […] Therefore, it is hypothesized that the lower antimicrobial activity of vija 10 may be attributed to the presence of only one Lys residue in loop 5.
# as §4
# [10] = system: Staphylococcus aureus (CMCC(B)26003-2-10); assay: MIC, broth dilution in 96-well plate; type: cell-based; conditions: 10^6 CFU/ml, overnight 37 °C, visual clarity, performed at least three times
# Text: as §5, §4
compound,measurement,setting,value
"CC[C@H](C)[C@@H]1NC(=O)[C@@H]2CSSC[C@@H]3NC(=O)[C@H](C(C)C)NC(=O)[C@H](CCCCN)NC(=O)[C@H](CO)NC(=O)[C@H](CO)NC(=O)[C@@H]4CSSC[C@H](NC(=O)[C@H](CO)NC(=O)[C@H](CCC(=O)O)NC(=O)CNC(=O)[C@H](CSSC[C@H](NC(=O)CNC(=O)[C@H](CC(C)C)NC(=O)[C@H](CC(C)C)NC(=O)[C@H](C)NC(=O)[C@H](CO)NC1=O)C(=O)N[C@@H](CO)C(=O)N4)NC(=O)[C@@H]1CCCN1C(=O)[C@H]([C@@H](C)CC)NC(=O)[C@H](CO)NC(=O)CNC(=O)[C@H](CC(N)=O)NC(=O)[C@H](CCCCN)NC(=O)[C@H](Cc1ccc(O)cc1)NC3=O)C(=O)N[C@@H](C(C)C)C(=O)N[C@@H](Cc1ccccc1)C(=O)N[C@@H]([C@@H](C)CC)C(=O)N1CCC[C@H]1C(=O)N2 [vija 10] (HELM PEPTIDE1{A.L.L.G.C.S.C.S.S.K.V.C.Y.K.N.G.S.I.P.C.G.E.S.C.V.F.I.P.C.I.S}$PEPTIDE1,PEPTIDE1,5:R3-20:R3|PEPTIDE1,PEPTIDE1,7:R3-24:R3|PEPTIDE1,PEPTIDE1,12:R3-29:R3|PEPTIDE1,PEPTIDE1,1:R1-31:R2$$$V2.0)",IC50,[1],733 ± 200 nM
same,IC50,[2],2090 ± 60 nM
same,IC50,[3],2180 ± 60 nM
same,IC50,[4],244 ± 20 nM
same,IC50,[5],3280 ± 150 nM
same,time of treatment to complete eradication of B. subtilis,Bacillus subtilis; 2 MIC,2 h
same,time of treatment to effective killing of B. subtilis,Bacillus subtilis; 4 MIC,1 h
same,MIC,[6],> 28.5 µM
same,MIC,[7],14.3 µM
same,MIC,[8],57 µM
same,MIC,[9],> 28.5 µM
same,MIC,[10],> 28.5 µM
